ChEMBL document CHEMBL1250440, “Development of chemical probes: toward the mode of action of a methylene-linked di(aryl acetate) E1” (Bioorg Med Chem, 2010)
The source made the active and inactive calls. No cut-off for these calls is given here.

Tests used:
[1] = target: T1, RAC-alpha serine/threonine-protein kinase (Homo sapiens, UniProt P31749); experiment: Inhibition of PKB activation in human overnight starved MCF7 cells assessed as phosphorylated Akt at Ser473 level at 50 ug/ml after 1 hr followed by treated with 1 ug/mL of insulin for 15 mins by Western blotting
T1 sequence (P31749 whole entry): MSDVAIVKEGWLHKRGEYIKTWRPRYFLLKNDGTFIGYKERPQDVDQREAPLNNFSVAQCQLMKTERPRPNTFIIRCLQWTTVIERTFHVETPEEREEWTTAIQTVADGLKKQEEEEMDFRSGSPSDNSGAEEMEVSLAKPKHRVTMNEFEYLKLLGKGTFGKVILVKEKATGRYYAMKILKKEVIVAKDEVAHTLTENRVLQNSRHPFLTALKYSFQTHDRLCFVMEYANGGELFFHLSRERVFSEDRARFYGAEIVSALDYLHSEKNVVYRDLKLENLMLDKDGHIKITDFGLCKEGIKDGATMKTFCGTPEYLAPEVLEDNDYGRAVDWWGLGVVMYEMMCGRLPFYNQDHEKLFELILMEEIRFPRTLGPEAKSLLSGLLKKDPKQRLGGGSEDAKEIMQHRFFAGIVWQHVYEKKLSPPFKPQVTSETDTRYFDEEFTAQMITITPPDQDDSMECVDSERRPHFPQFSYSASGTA

[2] = target: T1, RAC-alpha serine/threonine-protein kinase; experiment: Inhibition of PKB/Akt activation in human overnight starved MCF7 cells assessed as phosphorylated Akt at Ser473 level at 50 ug/ml after 1 hr followed by treated with 1 ug/mL of insulin for 15 mins by Western blotting; assay type: cell-based

Structure (SMILES) | inhibition of PKB activation (active/not active) [1] | IC50 [2]
CCc1ccc(Cc2cc(CCCl)ccc2OC(C)=O)c(OC(C)=O)c1 | Active | 
CC(=O)Oc1ccccc1Cc1ccccc1OC(C)=O | inactive | 
CCc1ccc(OC(C)=O)c(Cc2cc(CC)ccc2OC(C)=O)c1 | Active | 
CCc1ccc(OC(C)=O)c(Cc2cc(CCCl)ccc2OC(C)=O)c1 | Active | 25 µM
CCc1ccc(OC(C)=O)c(Cc2ccccc2OC(C)=O)c1 | inactive | 
CC(=O)Oc1ccccc1Cc1cc(CCCl)ccc1OC(C)=O | Active | 
